# Measurements: patent US20240262842A1, “SMALL MOLECULE INHIBITORS OF KRAS G12C MUTANT” (Merck Sharp & Dohme LLC, priority 2021, published 2024)
# Read-outs that look alike come from different tables or passages of the source.
# Experiments:
# [1] = target: T1, interaction between GMPPNP-bound recombinant K-Ras4B G12C mutant protein and cRAF RAS-binding domain (cRAF-RBD) (Homo sapiens, UniProt P01116, G12C); experiment: Inhibitory activity on interaction between KRAS G12C and cRAF (Alpha technology); details: Table 2-1
# T1 construct: His-tag (N)
# T1 sequence (P01116 with tags, fused parts or gaps isoform P01116-2 G12C): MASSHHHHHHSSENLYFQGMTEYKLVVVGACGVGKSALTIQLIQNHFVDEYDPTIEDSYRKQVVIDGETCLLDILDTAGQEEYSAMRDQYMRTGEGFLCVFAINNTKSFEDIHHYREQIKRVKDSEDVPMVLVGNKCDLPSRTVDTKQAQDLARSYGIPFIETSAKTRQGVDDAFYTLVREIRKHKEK
# Method in brief: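 His-tagged K-Ras4B G12C (aa 1-169), GMPPNP-loaded, preincubated with compound 1 h at 25° C in pH 7.5 Tris buffer with MgCl2, TCEP, Tween 20. cRAF-RBD (aa 50-132) and Alpha reagents then added for 1.5 h; Alpha signal normalised to DMSO (0%) and GDP-bound KRAS (100%); IC50 from dose titration.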
# MIA PaCa-2 cells = experiment: Growth inhibition activity on KRAS-G12C mutant cell line (CellTiter-Glo 3D); type: cell-based, human; details: MIA PaCa-2, 3-day culture with compound, Table 3-1
# Method in brief: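 MIA PaCa-2 cells in RPMI1640 with 10% FBS, U-bottom wells, cultured 1 day before compound (0.2% DMSO final), then 3 days at 37 °C, 5% CO2. Viability by CellTiter-Glo 3D luminescence; growth inhibition versus untreated wells gives IC50 (nM).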
# [2] = GMPPNP-bound KRAS G12C incubated with compound 25° C. 1 hour, read-out: IC50
# [3] = IC50, GMPPNP-bound KRAS G12C incubated with compound 25° C. 1 hour
Structure (SMILES),"IC50 [1, 2] [µM]","IC50 (MIA PaCa-2 cells; Homo sapiens, MIA PaCa-2, 72 h) [µM]","IC50 [1, 3] [µM]",IC50 (MIA PaCa-2 cells) [µM]
"CO[C@H]1CC[C@H](NC/C=C/C(=O)Nc2ccc(C(=O)c3cc4c5c(cccn35)-c3c(C(F)(F)F)cc5c(nc(C)n5C)c3OCC4)nc2)CC1 [Example 59, (E)-N-(6-(9,10-dimethyl-7-(trifluoromethyl)-13,14-dihydro-9H-imidazo-[4″,5″:5′,6′]benzo[1′,2′: 2,3]oxocino[4,5,6-hi]-indolizine-2-carbonyl)-pyridin-3-yl)-4-(((1r,4r)-4-methoxycyclohexyl)-amino)but-2-enamide]",0.0276,0.0198,–,–
"Cc1nc2c3c(c(C(F)(F)F)cc2n1C)-c1cccn2c(C(=O)c4ccc(NC(=O)/C=C/CNC5(C)COC5)cn4)cc(c12)CCO3 [Example 60, (E)-N-(6-(9,10-dimethyl-7-(trifluoromethyl)-13,14-dihydro-9H-imidazo-[4″,5″:5′,6′]benzo[1′,2′: 2,3]oxocino[4,5,6-hi]-indolizine-2-carbonyl)-pyridin-3-yl)-4-((3-meth-yloxetan-3-yl)amino)but-2-enamide]",0.0732,0.0321,–,–
"CN1CCn2cc(C(=O)c3cc(F)c(NC(=O)/C=C/CNC4(C)COC4)c(F)c3)c3cccc(c32)-c2c(C(F)(F)F)cc3c(ncn3C)c21 [Example 61, (E)-N-(4-(8,11-dimethyl-6-(trifluoromethyl)-8,11,12,13-tetrahydro-imidazo[4″,5″:5′,6′]benzo-[1′,2′:5,6][1,4]diazocino-[7,8,1-hi]indole-2-carbon-yl)-2,6-difluorophenyl)-4-((3-methyloxetan-3-yl)-amino)but-2-enamide]",–,0.0163,0.0763,–
"CCN1CCn2cc(C(=O)c3cc(F)c(NC(=O)/C=C/CN[C@H]4CC[C@H](OC)CC4)c(F)c3)c3cccc(c32)-c2c(C)cc3c(nc(C)n3C)c21 [Example 66, (E)-N-(4-(11-ethyl-6,8,9-trimethyl-8,11,12,13-tetra-hydroimidazo[4″,5″:5′,6′]-benzo[1′,2′:5,6][1,4]diazo-cino[7,8,1-hi]indole-2-carbonyl)-2,6-difluoro-phenyl)-4-(((1r,4r)-4-meth-oxycyclohexyl)amino)but-2-enamide]",–,0.0301,0.0534,–
"CO[C@H]1CC[C@H](NC/C=C/C(=O)Nc2ccc(C(=O)c3cc4c5c(cccn35)-c3c(C(F)(F)F)cc5c(nc(C)n5C)c3OCC4)cc2F)CC1 [Example 67, (E)-N-(4-(9,10-dimethyl-7-(trifluoromethyl)-13,14-dihydro-9H-imidazo-[4″,5″:5′,6′]benzo[1′,2′: 2,3]oxocino[4,5,6-hi]-indolizine-2-carbonyl)-2-fluorophenyl)-4-(((1r,4r)-4-methoxycyclohexyl)-amino)but-2-enamide]",0.022,0.00822,–,–
"Cc1nc2c3c(c(C(F)(F)F)cc2n1C)-c1cccn2c(C(=O)c4ccc(NC(=O)/C=C/CNC5(C)COC5)c(F)c4)cc(c12)CCO3 [Example 68, (E)-N-(4-(9,10-dimethyl-7-(trifluoromethyl)-13,14-dihydro-9H-imidazo-[4″,5″:5′,6′]benzo[1′,2′: 2,3]oxocino[4,5,6-hi]-indolizine-2-carbonyl)-2-fluorophenyl)-4-((3-meth-yloxetan-3-yl)amino)but-2-enamide]",0.0912,0.0164,–,–
"CO[C@H]1CC[C@H](NC/C=C/C(=O)Nc2c(F)cc(C(=O)c3cn4c5c(cccc35)-c3c(C)cc5c(nc(C)n5C)c3N(C(C)=O)CC4)cc2F)CC1 [Example 72, (E)-N-(4-(11-acetyl-6,8,9-trimethyl-8,11,12,13-tetra-hydroimidazo[4″,5″: 5′,6′]benzo[1′,2′:2,3][1,4]-diazocino[7,8,1-hi]indole-2-carbonyl)-2,6-difluoro-phenyl)-4-(((1r,4r)-4-methoxycyclohexyl)-amino)but-2-enamide]",–,1.17,0.0978,–
"Cc1cc2c(nc(C)n2C)c2c1-c1cccc3c(C(=O)c4cc(F)c(NC(=O)/C=C/CNC56CCC(CC5)OC6)c(F)c4)cn(c13)CCN2C [Example 73, (E)-4-((2-oxabicyclo-[2.2.2]octan-4-yl)amino)-N-(2,6-difluoro-4-(6,8,9,11-tetramethyl-8,11,12,13-tetrahydro-imidazo[4″,5″:5′,6′]-benzo[1′,2′:5,6][1,4]-diazocino[7,8,1-hi]indole-2-carbonyl)phenyl)but-2-enamide]",–,–,0.0469,0.0216
"CO[C@H]1CC[C@H](NC/C=C/C(=O)Nc2c(F)cc(C(=O)c3cc4c5c(cccn35)-c3c(C(F)(F)F)cc5c(ncn5C)c3N(C)CC4)cc2F)CC1 [Example 74, (E)-N-(4-(9,12-dimethyl-7-(trifluoromethyl)-9,12,13,14-tetrahydro-imidazo[4″,5″:5′,6′]benzo-[1′,2′:2,3]azocino[4,5,6-hi]indolizine-2-carbonyl)-2,6-difluorophenyl)-4-(((1r,4r)-4-methoxycyclo-hexyl)amino)but-2-en-amide]",0.0333,0.00822,–,–
"CO[C@H]1CC[C@H](NC/C=C/C(=O)Nc2c(F)cc(C(=O)c3cn4c5c(cccc35)-c3c(C(F)(F)F)cc5c(nc(C)n5C)c3N(C)C(=O)C4)cc2F)CC1 [Example 76, (E)-N-(2,6-difluoro-4-(8,9,11-trimethyl-12-oxo-6-(trifluoromethyl)-8,11,12,13-tetrahydro-imidazo[4″,5″:5′,6′]benzo-[1′,2′:5,6][1,4]diazocino-[7,8,1-hi]indole-2-carbon-yl)phenyl)-4-(((1r,4r)-4-methoxycyclohexyl)-amino)but-2-enamide]",–,0.00714,0.0222,–
Cc1nc2c3c(c(C(F)(F)F)cc2n1C)-c1cccc2c(C(=O)c4cc(F)c(NC(=O)/C=C/CNC5(C)COC5)c(F)c4)cn(c12)CC(=O)N3C [Example 77],–,0.054,0.0804,–
"COc1cc2c(nc(C)n2C)c2c1-c1cccn3c(C(=O)c4cc(F)c(NC(=O)/C=C/CN[C@H]5CC[C@H](OC)CC5)c(F)c4)cc(c13)CCN2C [Example 78, (E)-N-(2,6-difluoro-4-(7-methoxy-9,10,12-tri-methyl-9,12,13,14-tetra-hydroimidazo[4″,5″:5′,6′]-benzo[1′,2′:2,3]azocino-[4,5,6-hi]indolizine-2-carbonyl)phenyl)-4-(((1r,4r)-4-methoxycyclo-hexyl)amino)but-2-en-amide]",0.0337,0.00692,–,–
"COc1cc2c(nc(C)n2C)c2c1-c1cccn3c(C(=O)c4cc(F)c(NC(=O)/C=C/CNC(C)(C)C)c(F)c4)cc(c13)CCN2C [Example 79, (E)-4-(tert-butylamino)-N-(2,6-difluoro-4-(7-methoxy-9,10,12-trimeth-yl-9,12,13,14-tetrahydro-imidazo[4″,5″:5′,6′]benzo-[1′,2′:2,3]azocino[4,5,6-hi]indolizine-2-carbonyl)-phenyl)but-2-enamide]",0.0328,0.0106,–,–
"Cn1cnc2c3c(c(C(F)(F)F)cc21)-c1cccc2c(C(=O)c4cc(F)c(NC(=O)/C=C/CNC5(C)COC5)c(F)c4)cn(c12)CCO3 [Example 80, (E)-N-(2,6-difluoro-4-(8-methyl-6-(trifluorometh-yl)-12,13-dihydro-8H-imidazo[4″,5″:3′,4′]benzo-[1′,2′:7,8][1,4]oxazocino-[6,5,4-hi]indole-2-carbon-yl)phenyl)-4-((3-methyl-oxetan-3-yl)amino)but-2-enamide]",–,0.0222,0.0283,–
